According to patent US20230210831A1, “CHRONIC KIDNEY DISEASE TREATMENT OR PREVENTION METHOD” (Japan Tobacco Inc., priority 2019, published 2023):

Tests used:
Type in all cases: cell-based
[1] = system: Salmonella typhimurium TA98; assay: Ames test (reverse mutation test), TA98
Protocol: (§1) The solvent used herein was dimethyl sulfoxide (DMSO, 100 µL/plate).
(§2) The mixtures were preincubated at 37° C. for 20 minutes while shaking. […] Two plates per treatment were used.

[2] = system: Salmonella typhimurium TA1537; assay: Ames test (reverse mutation test), TA1537
Protocol: as §1, §2

[3] = system: Salmonella typhimurium TA100; assay: Ames test (reverse mutation test), TA100
Protocol: as §1, §2

[4] = system: Salmonella typhimurium TA1535; assay: Ames test (reverse mutation test), TA1535
Protocol: as §1, §2

Escherichia coli WP2uvrA = assay: Ames test (reverse mutation test), WP2uvrA
Protocol: as §1, §2

Compound: Cc1cccc(-n2nc(N)cc2-c2cccc(OC(F)(F)F)c2)c1 [Metabolite H]
- Number of revertant colonies TA98 ([1]; S9 Mix +, dose 2.3 µg/plate): 56
- Number of revertant colonies TA98 ([1]; S9 Mix +, dose 6.9 µg/plate): 61
- Number of revertant colonies TA98 ([1]; S9 Mix +, dose 21 µg/plate): 152
- Number of revertant colonies TA98 ([1]; S9 Mix +, dose 62 µg/plate): 194
- Number of revertant colonies TA98 ([1]; S9 Mix +, dose 185 µg/plate): 85
- Number of revertant colonies TA98 ([1]; S9 Mix +, dose 556 µg/plate): 56
- Number of revertant colonies TA98 ([1]; S9 Mix +, dose 1667 µg/plate): 48
- Number of revertant colonies TA98 ([1]; S9 Mix +, dose 5000 µg/plate): 20
- Number of revertant colonies TA98 ([1]; S9 Mix -, dose 2.3 µg/plate): 18
- Number of revertant colonies TA98 ([1]; S9 Mix -, dose 6.9 µg/plate): 23
- Number of revertant colonies TA98 ([1]; S9 Mix -, dose 21 µg/plate): 18
- Number of revertant colonies TA98 ([1]; S9 Mix -, dose 62 µg/plate): 20
- Number of revertant colonies TA98 ([1]; S9 Mix -, dose 185 µg/plate): 22
- Number of revertant colonies TA98 ([1]; S9 Mix -, dose 556 µg/plate): 20
- Number of revertant colonies TA98 ([1]; S9 Mix -, dose 1667 µg/plate): 17
- Number of revertant colonies TA98 ([1]; S9 Mix -, dose 5000 µg/plate): 3
- potential to induce reverse mutations ([1]; TA98 with S9 mix): showed potential to induce reverse mutations
- Number of revertant colonies TA1537 ([2]; S9 Mix +, dose 2.3 µg/plate): 11
- Number of revertant colonies TA1537 ([2]; S9 Mix +, dose 6.9 µg/plate): 15
- Number of revertant colonies TA1537 ([2]; S9 Mix +, dose 21 µg/plate): 26
- Number of revertant colonies TA1537 ([2]; S9 Mix +, dose 62 µg/plate): 35
- Number of revertant colonies TA1537 ([2]; S9 Mix +, dose 185 µg/plate): 18
- Number of revertant colonies TA1537 ([2]; S9 Mix +, dose 556 µg/plate): 10
- Number of revertant colonies TA1537 ([2]; S9 Mix +, dose 1667 µg/plate): 19
- Number of revertant colonies TA1537 ([2]; S9 Mix +, dose 5000 µg/plate): 15
- Number of revertant colonies TA1537 ([2]; S9 Mix -, dose 2.3 µg/plate): 9
- Number of revertant colonies TA1537 ([2]; S9 Mix -, dose 6.9 µg/plate): 9
- Number of revertant colonies TA1537 ([2]; S9 Mix -, dose 21 µg/plate): 11
- Number of revertant colonies TA1537 ([2]; S9 Mix -, dose 62 µg/plate): 9
- Number of revertant colonies TA1537 ([2]; S9 Mix -, dose 185 µg/plate): 4
- Number of revertant colonies TA1537 ([2]; S9 Mix -, dose 556 µg/plate): 6
- Number of revertant colonies TA1537 ([2]; S9 Mix -, dose 1667 µg/plate): 5
- Number of revertant colonies TA1537 ([2]; S9 Mix -, dose 5000 µg/plate): 2
- potential to induce reverse mutations ([2]; TA1537 with S9 mix): showed potential to induce reverse mutations
- Number of revertant colonies TA100 ([3]; S9 Mix +, dose 2.3 µg/plate): 449
- Number of revertant colonies TA100 ([3]; S9 Mix +, dose 6.9 µg/plate): 1035
- Number of revertant colonies TA100 ([3]; S9 Mix +, dose 21 µg/plate): 2000
- Number of revertant colonies TA100 ([3]; S9 Mix +, dose 62 µg/plate): 2212
- Number of revertant colonies TA100 ([3]; S9 Mix +, dose 185 µg/plate): 722
- Number of revertant colonies TA100 ([3]; S9 Mix +, dose 556 µg/plate): 373
- Number of revertant colonies TA100 ([3]; S9 Mix +, dose 1667 µg/plate): 242
- Number of revertant colonies TA100 ([3]; S9 Mix +, dose 5000 µg/plate): 75
- Number of revertant colonies TA100 ([3]; S9 Mix -, dose 2.3 µg/plate): 130
- Number of revertant colonies TA100 ([3]; S9 Mix -, dose 6.9 µg/plate): 127
- Number of revertant colonies TA100 ([3]; S9 Mix -, dose 21 µg/plate): 136
- Number of revertant colonies TA100 ([3]; S9 Mix -, dose 62 µg/plate): 113
- Number of revertant colonies TA100 ([3]; S9 Mix -, dose 185 µg/plate): 103
- Number of revertant colonies TA100 ([3]; S9 Mix -, dose 556 µg/plate): 88
- Number of revertant colonies TA100 ([3]; S9 Mix -, dose 1667 µg/plate): 79
- Number of revertant colonies TA100 ([3]; S9 Mix -, dose 5000 µg/plate): 55
- potential to induce reverse mutations ([3]; TA100 with S9 mix): showed potential to induce reverse mutations
- Number of revertant colonies TA1535 ([4]; S9 Mix +, dose 1667 µg/plate): 3
- Number of revertant colonies TA1535 ([4]; S9 Mix -, dose 185 µg/plate): 14
- Number of revertant colonies TA1535 ([4]; S9 Mix -, dose 1667 µg/plate): 6
- Number of revertant colonies WP2uvrA (Escherichia coli WP2uvrA; S9 Mix +, dose 2.3 µg/plate): 23
- Number of revertant colonies WP2uvrA (Escherichia coli WP2uvrA; S9 Mix +, dose 6.9 µg/plate): 25
- Number of revertant colonies WP2uvrA (Escherichia coli WP2uvrA; S9 Mix +, dose 21 µg/plate): 25
- Number of revertant colonies WP2uvrA (Escherichia coli WP2uvrA; S9 Mix +, dose 62 µg/plate): 35
- Number of revertant colonies WP2uvrA (Escherichia coli WP2uvrA; S9 Mix +, dose 185 µg/plate): 26
- Number of revertant colonies WP2uvrA (Escherichia coli WP2uvrA; S9 Mix +, dose 556 µg/plate): 20
- Number of revertant colonies WP2uvrA (Escherichia coli WP2uvrA; S9 Mix +, dose 1667 µg/plate): 19
- Number of revertant colonies WP2uvrA (Escherichia coli WP2uvrA; S9 Mix +, dose 5000 µg/plate): 9
- Number of revertant colonies WP2uvrA (Escherichia coli WP2uvrA; S9 Mix -, dose 2.3 µg/plate): 21
- Number of revertant colonies WP2uvrA (Escherichia coli WP2uvrA; S9 Mix -, dose 6.9 µg/plate): 18
- Number of revertant colonies WP2uvrA (Escherichia coli WP2uvrA; S9 Mix -, dose 21 µg/plate): 18
- Number of revertant colonies WP2uvrA (Escherichia coli WP2uvrA; S9 Mix -, dose 62 µg/plate): 20
- Number of revertant colonies WP2uvrA (Escherichia coli WP2uvrA; S9 Mix -, dose 185 µg/plate): 20
- Number of revertant colonies WP2uvrA (Escherichia coli WP2uvrA; S9 Mix -, dose 556 µg/plate): 17
- Number of revertant colonies WP2uvrA (Escherichia coli WP2uvrA; S9 Mix -, dose 1667 µg/plate): 13
- Number of revertant colonies WP2uvrA (Escherichia coli WP2uvrA; S9 Mix -, dose 5000 µg/plate): 8
